Test results as given in US20160050895A1, “TRANSGENIC NON-HUMAN ORGANISMS WITH NON-FUNCTIONAL TSPO GENES” (AUSTRALIAN NUCLEAR SCIENCE AND TECHNOLOGY ORGANIZATION, priority 2013, published 2016).
Entries after “also recorded” stand apart in the source; their conditions may differ.

Experiments:
TSPO [1] = assay: Radioligand membrane saturation binding with 3H-PK11195; parameters: species or system mouse; conditions: testicular and kidney tissue; TSPO-/- mice compared to TSPO+/+ mice
Procedure: Tissue samples were homogenised with T25 digital Ultra-Turrax homogenizer (Ika, Wilmington, N.C., USA) at speed setting 5 or 20000 rpm in approximately 45 mL of ice-cold TRIS buffer (pH 7.4), collected by centrifugation at 48000 g and the supernatant was then discarded. The procedure was then immediately repeated, this acts as an extra wash step to remove any soluble interfering substances to radioligand binding (Byland et al. 1993). Following the second centrifugation and removal ofsupernatant the samples were resuspended in approximately 50 volumes of ice-cold TRIS buffer (pH 7.4). Samples were aliquoted stored in −80° C. until required.
For TSPO knock-out mice studies, radioligand binding was performed using 3H-PK11195 racemate across a range of concentrations (FIG. 4). PK11195 is a TSPO specific probe. Total and non-specific binding was determined through 8 concentrations of 3H-PK11195 ranging from 0.56 nM to 20 nM. Non-specific binding was determined by the addition of 5 μM PK11195 to all concentrations of 3H-PK11195. […]
Organs were homogenised, washed twice in ice-cold 50 mM Tris-HCl (pH 7.4) by centrifugation at 48000×g, resuspended in 50 volumes of ice-cold 50 mM Tris-HCl, and protein concentration was determined using a BCA protein assay kit (Thermo Fisher Scientific). […] Non-specific binding was determined with 5 μM PK11195. […]

TSPO [2] = assay: Film autoradiography of brain sections after facial nerve axotomy; format: binding, mouse; conditions: TSPO-/- mice
Description: Procedures for facial nerve axotomy were approved by the animal ethics committee at the University of Sydney. Animals were anaesthetised using Isoflurane anaesthesia. Animals were monitored for a combination of respiration, heart rate, oxygen saturation and temperature during procedures using a variety of monitoring equipment to ensure anaesthetic depth. The surgical process commenced when foot-pad or plantar reflex could no longer be elicited. The fur on the ipsilateral (right) side of the neck was shaved from the ear downwards, and the skin cleaned using 70% ethanol. A small incision (0.5-0.7 cm in length) overlying the musculature covering the stylomastoid foramen was made. The facial nerve was identified, isolated and then transected completely. The skin of incision was closed with heal-glue. […] The animals were euthanized with CO2 3 days after the axotomy and brain tissue, including facial nerve nuclei in the brain stem and cerebellum, was immediately dissected, snap-frozen in liquid nitrogen, and then stored in −80° C. freezer until the cryostat section.
A small incision (0.5-0.7 cm) in the skin 0.5 cm dorsal and lateral to the ear was made and the facial nerve transected under an operating microscope. The incision was closed with 3M™ Vetbond™ Tissue Adhesive (St. Paul, Minn., USA). […] Mice were monitored carefully and euthanized with CO2 three days after the operation. Brains were dissected, placed in OCT, transferred to liquid nitrogen, and stored at −80° C. until cryo-sectioning.
Tissue sections from TSPO^+/+, TSPO^+/− and TSPO^−/− mice were incubated at room temperature for 20 min in 170 mM Tris-HCl pH 7.4 containing 1 nM [^3H]PK11195 (specific activity 84 Ci/mmol; Perkin Elmer, Waltham, Mass., USA), washed twice for 5 min in 170 mM Tris-HCl, rinsed with 3 dips in ice-cold MilliQ H2O, and dried. […] Displacement binding was carried out in the presence of PK11195 (10 μM), CLINDE (10 μM) and PBR-11 (10 μM).

CC[C@@H](C)N(C)C(=O)c1cc2ccccc2c(-c2ccccc2Cl)n1 [[^3H]PK11195]
Specific binding using [3H]PK11195 (TSPO [1]): close to zero signal | TSPO ligand binding in the injured facial nucleus (TSPO [2]; after facial nerve axotomy, activated microglia present): no binding; also recorded: not associated with an increase in the binding | selectivity in pathologically changed tissue (TSPO [2]; injured facial nucleus): high selectivity; also recorded: holds true
